≈ marks a conversion by molar mass, not a printed value. Read-outs that look alike come from different tables or passages of the source.
How the values were obtained:
Format in all cases: cell-based
[1] = tested on: Peptostreptococcus micros (GIFU 7824); assay: In vitro anti-bacterial activity (MIC90), anaerobic bacteria; conditions: Parvimonas micra, anaerobic reference bacteria
[2] = tested on: Bacteroides thetaiotaomicron (GAI 0659); assay: as above
[3] = tested on: Bacteroides vulgatus (GAI 0673); assay: as above; conditions: Phocaeicola vulgatus, anaerobic reference bacteria
[4] = tested on: Salmonella typhimurium (TD); assay: In vitro anti-bacterial activity (MIC90), Gram-negative bacteria; conditions: Salmonella enterica, Gram-negative reference strain
Experimental: Anti-bacterial activity of the compound having Formula IV was tested against several Gram-negative reference bacteria strains and compared to the anti-bacterial activity of three commercially available antibiotics (nadifloxacin, ofloxacin, and sparfloxacin).

[5] = tested on: Bacillis subtilis (ATCC 6633); assay: In vitro anti-bacterial activity (MIC90), Gram-positive bacteria; conditions: Gram-positive reference strain
Experimental: (§1) In yet another aspect, said another quinolone has a MIC90 value for a Gram-negative bacterium that is lower than that of the fluoroquinolone having Formula I, II, III, IV, V, VI, VII, or VIII for the same bacterium, said fluoroquinolone being included in the composition. MIC90 is the minimum concentration of the active compound required to inhibit ninety percent of the growth of a specified pathogen, in μg/ml. Anti-bacterial activity of the compound having Formula […] was tested against several Gram-positive reference bacteria strains and compared to the anti-bacterial activity of three commercially available antibiotics (nadifloxacin, ofloxacin, and sparfloxacin).

[6] = tested on: Streptococcus pneumoniae (IID 553); assay: as above; conditions: IID553, Gram-positive reference strain
Experimental: as §1

[7] = tested on: Pseudomonas aeruginosa (IFO 13736); assay: In vitro anti-bacterial activity (MIC90), Gram-negative bacteria; conditions: IFO13736, Gram-negative reference strain
Experimental: (§2) In yet another aspect, said another quinolone has a MIC90 value for a Gram-negative bacterium that is lower than that of the fluoroquinolone having Formula I, II, III, IV, V, VI, VII, or VIII for the same bacterium, said fluoroquinolone being included in the composition. MIC90 is the minimum concentration of the active compound required to inhibit ninety percent of the growth of a specified pathogen, in μg/ml.
(§3) Anti-bacterial activity of the compound having Formula IV was tested against several Gram-negative reference bacteria strains and compared to the anti-bacterial activity of three commercially available antibiotics (nadifloxacin, ofloxacin, and sparfloxacin). The results are shown in Table 2 as MIC90 values (minimum concentration of the active compound required to inhibit ninety percent of the growth of a specified pathogen, in μg/ml).

Escherichia coli (O-1) = assay: as above; conditions: Gram-negative reference strain
Experimental: as §2, §3

[8] = tested on: Serratia marcenscens (NHL); assay: as above; conditions: Gram-negative reference strain
Experimental: as §2, §3

[9] = tested on: Pseudomonas aeruginosa (ATCC 27853); assay: as above; conditions: ATCC27853, Gram-negative reference strain
Experimental: as §2, §3

[10] = tested on: Acinetobacter calcoaceticus (IFO 12552); assay: as above; conditions: IFO12552, Gram-negative reference strain
Experimental: as §2, §3

Proteus rettgeri = assay: as above; conditions: Providencia rettgeri, Gram-negative reference strain
Experimental: as §2, §3

Shigella flexneri (2b) = assay: as above; conditions: Gram-negative reference strain
Experimental: as §2, §3

[11] = tested on: Enterobacter aerogenes (IFO 13534); assay: as above; conditions: Klebsiella aerogenes, IFO13534, Gram-negative reference strain
Experimental: as §2, §3

[12] = tested on: Proteus mirabilis (IFO 13300); assay: as above; conditions: IFO13300, Gram-negative reference strain
Experimental: as §2, §3

[13] = tested on: Klebsiella pneumoniae (IFO 13541); assay: as above; conditions: IFO13541, Gram-negative reference strain
Experimental: as §2, §3

[14] = tested on: Propionibacterium acnes (ATCC 6919); assay: In vitro anti-bacterial activity (MIC90), anaerobic bacteria; conditions: Cutibacterium acnes, ATCC6919, anaerobic reference bacteria
[15] = tested on: Clostridium perfringens (KZ 210); assay: microbe, parasite or virus in culture
[16] = tested on: Veillonella parvula (GAI 5602); assay: In vitro anti-bacterial activity (MIC90), anaerobic bacteria; conditions: anaerobic reference bacteria
[17] = tested on: Peptostreptococcus magnum (GAI 0664); assay: as above; conditions: anaerobic reference bacteria
[18] = tested on: Propionibacterium acnes (ATCC 11828); assay: as above; conditions: Cutibacterium acnes, ATCC11828, anaerobic reference bacteria
[19] = tested on: Staphylococcus aureus (ATCC 33591); assay: In vitro anti-bacterial activity (MIC90), methicillin-resistant Staphylococcus aureus isolates; conditions: ATCC33591; methicillin-resistant Staphylococcus aureus (ATCC 33591)
Experimental: as §2
(§4) Anti-bacterial activity of the compound having Formula IV was tested against some methicillin-resistant Staphylococcus aureus bacteria strains and compared to the anti-bacterial activity of three commercially available antibiotics (nadifloxacin, ofloxacin, and sparfloxacin).

[20] = tested on: Staphylococcus aureus (No. 395); assay: as above; conditions: methicillin-resistant Staphylococcus aureus (No. 395)
Experimental: as §2, §4

[21] = tested on: Staphylococcus aureus (ATCC 33592); assay: as above; conditions: ATCC33592; methicillin-resistant Staphylococcus aureus (ATCC 33592)
Experimental: as §2, §4

[22] = tested on: Staphylococcus aureus (No. 421); assay: as above; conditions: methicillin-resistant Staphylococcus aureus (No. 421)
Experimental: as §2, §4

[23] = tested on: Staphylococcus aureus (No. 420); assay: as above; conditions: methicillin-resistant Staphylococcus aureus (No. 420)
Experimental: as §2, §4

[24] = tested on: Staphylococcus aureus (No. 419); assay: as above; conditions: methicillin-resistant Staphylococcus aureus (No. 419)
Experimental: as §2, §4

[25] = tested on: Staphylococcus aureus (No. 415); assay: as above; conditions: methicillin-resistant Staphylococcus aureus (No. 415)
Experimental: as §2, §4

[26] = tested on: Staphylococcus aureus (ATCC 33593); assay: as above; conditions: ATCC33593; methicillin-resistant Staphylococcus aureus (ATCC 33593)
Experimental: as §2, §4

Row | Structure (SMILES) | MIC90 [1] [µg/mL] | MIC90 [3] [µg/mL] | MIC90 [4] [µg/mL] | MIC90 [5] [µg/mL] | MIC90 [6] [µg/mL] | MIC90 [7] [µg/mL] | MIC90 (Escherichia coli (O-1)) [µg/mL] | MIC90 [8] [µg/mL] | MIC90 [9] [µg/mL] | MIC90 [10] [µg/mL] | MIC90 (Proteus rettgeri) [µg/mL] | MIC90 (Shigella flexneri (2b)) [ng/mL] | MIC90 [11] [µg/mL] | MIC90 [12] [µg/mL] | MIC90 [13] [µg/mL] | MIC90 [14] [µg/mL] | MIC90 [15] [µg/mL] | MIC90 [16] [µg/mL] | MIC90 [17] [µg/mL] | MIC90 [18] [µg/mL] | also measured
1 | C[C@@H]1CN(c2c(F)c(N)c3c(=O)c(C(=O)O)cn(C4CC4)c3c2F)C[C@H](C)N1 [Sparfloxacin, sparfloxacin] | 0.78 (≈ 1.99 µM) | 0.78 (≈ 1.99 µM) | 0.012 (≈ 0.0306 µM) | 0.024 (≈ 0.0612 µM) | 0.39 (≈ 0.994 µM) | 0.78 (≈ 1.99 µM) | 0.012 (≈ 0.0306 µM) | 0.2 (≈ 0.51 µM) | 0.78 (≈ 1.99 µM) | 0.024 (≈ 0.0612 µM) | 0.2 (≈ 0.51 µM) | 6 (≈ 0.0153 µM) | 0.1 (≈ 0.255 µM) | 0.1 (≈ 0.255 µM) | 0.012 (≈ 0.0306 µM) | 0.39 (≈ 0.994 µM) | 0.39 (≈ 0.994 µM) | 0.2 (≈ 0.51 µM) | 0.1 (≈ 0.255 µM) | 0.78 (≈ 1.99 µM) | MIC90 ([2]; Bacteroides thetaiotaomicron): 0.78 µg/mL (≈ 1.99 µM); MIC90 [19]: 0.024 µg/mL (≈ 0.0612 µM); MIC90 [20]: 0.05 µg/mL (≈ 0.127 µM); MIC90 [21]: 0.1 µg/mL (≈ 0.255 µM); MIC90 [22]: 0.39 µg/mL (≈ 0.994 µM); MIC90 [23]: 0.78 µg/mL (≈ 1.99 µM); MIC90 [24]: 1.56 µg/mL (≈ 3.98 µM); MIC90 [25]: 0.2 µg/mL (≈ 0.51 µM); MIC90 [26]: 0.024 µg/mL (≈ 0.0612 µM)
2 | CC1COc2c(N3CCN(C)CC3)c(F)cc3c(=O)c(C(=O)O)cn1c23 (centres unmarked) [Ofloxacin, ofloxacin] | 0.78 (≈ 2.16 µM) | 3.13 (≈ 8.66 µM) | 0.05 (≈ 0.138 µM) | 0.05 (≈ 0.138 µM) | 1.56 (≈ 4.32 µM) | 1.56 (≈ 4.32 µM) | 0.05 (≈ 0.138 µM) | 0.1 (≈ 0.277 µM) | 3.13 (≈ 8.66 µM) | 0.39 (≈ 1.08 µM) | 0.2 (≈ 0.553 µM) | 6 (≈ 0.0166 µM) | 0.2 (≈ 0.553 µM) | 0.05 (≈ 0.138 µM) | 0.024 (≈ 0.0664 µM) | 0.78 (≈ 2.16 µM) | 0.78 (≈ 2.16 µM) | 0.39 (≈ 1.08 µM) | 0.39 (≈ 1.08 µM) | 1.56 (≈ 4.32 µM) | MIC90 ([2]; Bacteroides thetaiotaomicron): 3.13 µg/mL (≈ 8.66 µM); MIC90 [19]: 0.05 µg/mL (≈ 0.138 µM); MIC90 [20]: 0.2 µg/mL (≈ 0.553 µM); MIC90 [21]: 0.39 µg/mL (≈ 1.08 µM); MIC90 [22]: 1.56 µg/mL (≈ 4.32 µM); MIC90 [23]: 1.56 µg/mL (≈ 4.32 µM); MIC90 [24]: 3.13 µg/mL (≈ 8.66 µM); MIC90 [25]: 0.78 µg/mL (≈ 2.16 µM); MIC90 [26]: 0.2 µg/mL (≈ 0.553 µM)
3 | CC1CCc2c(N3CCC(O)CC3)c(F)cc3c(=O)c(C(=O)O)cn1c23 (centres unmarked) [Nadifloxacin, nadifloxacin] | 0.39 (≈ 1.08 µM) | 0.78 (≈ 2.16 µM) | 0.2 (≈ 0.555 µM) | 0.006 (≈ 0.0166 µM) | 0.78 (≈ 2.16 µM) | 3.13 (≈ 8.69 µM) | 0.2 (≈ 0.555 µM) | 1.56 (≈ 4.33 µM) | 6.25 (≈ 17.3 µM) | 0.78 (≈ 2.16 µM) | 0.39 (≈ 1.08 µM) | 6 (≈ 0.0166 µM) | 1.56 (≈ 4.33 µM) | 0.1 (≈ 0.277 µM) | 0.1 (≈ 0.277 µM) | 0.2 (≈ 0.555 µM) | 0.2 (≈ 0.555 µM) | 0.78 (≈ 2.16 µM) | 0.2 (≈ 0.555 µM) | 0.78 (≈ 2.16 µM) | MIC90 ([2]; Bacteroides thetaiotaomicron): 1.56 µg/mL (≈ 4.33 µM); MIC90 [19]: 0.006 µg/mL (≈ 0.0166 µM); MIC90 [20]: 0.024 µg/mL (≈ 0.0666 µM); MIC90 [21]: 0.05 µg/mL (≈ 0.139 µM); MIC90 [22]: 0.78 µg/mL (≈ 2.16 µM); MIC90 [23]: 0.78 µg/mL (≈ 2.16 µM); MIC90 [24]: 0.39 µg/mL (≈ 1.08 µM); MIC90 [25]: 0.1 µg/mL (≈ 0.277 µM); MIC90 [26]: 0.024 µg/mL (≈ 0.0666 µM)
4 | N[C@@H]1CCCCN(c2c(F)cc3c(=O)c(C(=O)O)cn(C4CC4)c3c2Cl)C1 [Compound Having Formula IV] | 0.2 | 0.1 | 0.05 | 0.012 | 0.1 | 1.56 | 0.1 | 0.2 | 1.56 | 0.39 | 0.39 | 6 | 0.39 | 0.1 | 0.024 | 0.2 | 0.2 | 0.1 | 0.05 | 0.39 | MIC90 ([2]; Bacteroides thetaiotaomicron (GAI 0659), anaerobic reference bacteria, read-out: MIC90): 0.2 µg/mL; MIC90 [19]: 0.012 µg/mL; MIC90 [20]: 0.006 µg/mL; MIC90 [21]: 0.05 µg/mL; MIC90 [22]: 0.2 µg/mL; MIC90 [23]: 0.1 µg/mL; MIC90 [24]: 0.1 µg/mL; MIC90 [25]: 0.05 µg/mL; MIC90 [26]: 0.012 µg/mL

Source: US20090082337A1, “Compositions Comprising Quinolone and Methods for Treating or Controlling Infections” (priority 2007, published 2009)
